Activity calls are given as the source filed them.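 How the source made its calls: active means compounds whose fitted half-effect growth-inhibition concentration is no more than twice their top tested dose; inconclusive means flat curve showing moderate inhibition, or an unreliable curve fit; inactive means the rest.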
system: not listed separately; experiment: yeast respiratory growth inhibition – glycerol medium, OD600, dry powder, dose response (AID 602184); conditions: S. cerevisiae growth in glycerol medium, OD600, 48 h; at 19.5 µM (top of the series)

SMILES | activity change, negative = growth inhibition
Oc1c(C(c2ccc(Cl)cc2)N2CCCC2)ccc2cccnc12 (centres undefined) | -8.5% (inactive)
NC(=O)c1cccc(C(=O)Nc2nc(-c3ccc4c(c3)CCCC4)cs2)c1 | -13.9% (inactive)
O=C(Nc1nc(-c2ccccc2)cs1)c1ccc(Br)s1 | -11.7% (inactive)
Cc1ccc(C(=O)Nc2nnc(-c3ccccc3)o2)cc1C | -3.03% (inactive)
Cc1cc(C)n(-c2nc3ccccc3c(=O)n2OCC#N)n1 | -14.8% (inactive)
O=C(Nc1nc(-c2ccc3c(c2)CCCC3)cs1)c1ccccc1 | -4.76% (inactive)
COc1ccc(-c2nnc(NC(=O)c3ccc(S(=O)(=O)N4CCCc5ccccc54)cc3)o2)cc1 | -22.8% (inactive)

same assay, conditions: S. cerevisiae growth in glycerol medium, OD600, 48 h; at 23.5 µM (top of the series)

SMILES | activity change, negative = growth inhibition
Oc1c(CN2CCN(c3ccccc3)CC2)cc(Cl)c2cccnc12 | -52.9% (inactive)

system: S. cerevisiae growth in glycerol medium, OD600, 48 h; experiment: as above; conditions: not given

SMILES | AC50
O=C(Nc1nc(-c2ccccn2)cs1)c1ccc(Cl)s1 | 1.55 µM
CN1CCN(C(c2ccc(C(F)(F)F)cc2)c2ccc3cccnc3c2O)CC1 (centres undefined) | 3.1 µM
Oc1c(CN2CCc3ccccc3C2)cc(Cl)c2cccnc12 | 8.17 µM
CCOC(=O)N1C(=O)C2(CCCCC2)N(c2ccc(C)cc2)C1=S | < 0.08 µM
C=CCNC(=S)N/N=C(\C)c1ccccn1 | 8.88 µM
CCCC(=O)NC(c1cccs1)c1cc(Cl)c2cccnc2c1O (centres undefined) | 10.6 µM
O=C(Nc1nc(-c2ccccn2)cs1)c1ccccc1 | 18.9 µM
C/C(=N\NC(=O)c1cc2ccccc2cc1O)c1ccccn1 | 14.4 µM
O=C(Nc1nnc(-c2ccc3c(c2)CCCC3)o1)c1ccccc1 | 16.1 µM
Cc1ccc(C(=O)Nc2nc(-c3ccccn3)cs2)cc1 | 6.34 µM
Oc1c(C(c2ccccc2Cl)N2CCCCC2)ccc2cccnc12 (centres undefined) | 21.8 µM
O=C(Nc1nc(-c2ccccn2)cs1)c1ccc(Br)s1 | 1.01 µM
O=C(Oc1c(Cl)cc(Cl)c2cccnc12)c1ccco1 | 0.64 µM
O=C(NNC(=S)Nc1ccc(Cl)c(Cl)c1)c1ccccn1 | 12.7 µM
Cc1ccc(-c2nc3c(Cl)cc(Cl)cc3c(=O)n2O)cc1 | 3.71 µM
O=C(Nc1nnc(-c2ccc3c(c2)CCCC3)o1)c1ccc(Cl)cc1Cl | 14.8 µM

From PubChem BioAssay AID602184 (Broad Institute, 2012)
